Results on eight compounds are retold here after article PMC8398714, “Synthesis and Evaluation of Biological Activities of Bis(spiropyrazolone)cyclopropanes: A Potential Application against Leishmaniasis” (Molecules, 2021).

Data set [1] deals with RKO. Put plainly: MTS cell viability assay on RKO cells. Format: cell-based. Conditions: Homo sapiens, 48 h; for inhibition at 100 µM: Dox 1 µM, mean ± SEM, NA = no activity, read-out: Percentage (%) of inhibition, RKO; for IC50: 15-150 µM, mean ± SEM of triplicates. The procedure:
(§1) Five tumor human cancer cell lines—cerebral astrocytoma (D-384), grade IV prostatic adenocarcinoma (PC-3), mammary adenocarcinoma (MCF-7), human colon carcinoma (RKO) and lung carcinoma (A-549)—along with one immortalized hamster cell line (CHO K-1) were used. The cells PC-3, MCF-7 and RKO were cultured in RPMI-1640, D-384 on DMEM and CHO K-1 on HAM F-12 medium supplemented with 10% fetal bovine serum (FBS, Invitrogen, Karlsruhe, Germany), 1% antibiotic-antimitotic solution (100 units/mL penicillin G, 100 µg/mL streptomycin, and 0.25 µg/mL amphotericin B, Gibco, Grand Island, NY, USA), and 1% L-glutamine (2 mM, Gibco). The cells were incubated at 37 °C in a 5% CO2 atmosphere. The viable cells were counted using the trypan blue exclusion method in a hemocytometer.
(§2) The MTS (5-[3-(carboxymethoxy)phenyl]-3-(4,5-dimethyl-2-thiazolyl)-2-(4-sulfo- phenyl)-2H-tetrazolium inner salt) cell viability assay was used to assess the inhibitory effects of the extracts on the survival of human cancer cell lines. A total of 3–5 × 10^3 cells/well were seeded into 96-well plates and were allowed to adhere for 24 h. […] Each concentration/assay was performed three times. Dimethyl sulfoxide (DMSO) was used as a negative control at a final concentration of 0.1% v/v, and 1 µM Doxorubicin was used as a positive control. The cells were incubated with the treatments for 48 h, after which 20 µL MTS (5 mg/mL, Aqueous One Solution Reagent, Gibco) was added and further incubated for 4 h at 37 °C. The absorbance was measured at 570 nm. The data obtained with cells treated with DMSO were defined to represent 100% viability.
Background: Formazan colour is commonly taken as a measure of viable cells.

Data set [2] has as its system MCF-7. The experiment in a line: MTS cell viability assay on MCF-7 cells. The class given is cell-based. Conditions: Homo sapiens, MCF7, 48 h, Dox 1 µM, mean ± SEM, NA = no activity, read-out: Percentage (%) of inhibition, MCF-7. The protocol: as §1, §2
In data set [3] the test system is CHO-K1. The experiment in a line: MTS cell viability assay on immortalized CHO-K1 cells. Format: cell-based, hamster. Conditions: 48 h, Dox 1 µM, mean ± SEM, NA = no activity, read-out: Percentage (%) of inhibition, CHO-K1. The protocol: as §1, §2
Data set [4] in a line: Cytotoxicity, MTT assay on RAW 264.7 macrophages. Format: cell-based. Conditions: mouse. The procedure:
Raw 264.7 (ATCC® TIB-71™) was maintained in Dulbecco’s Modified Eagle Medium (DMEM) (Gibco, Invitrogen, Gibco, Carlsbad, CA, USA) supplemented with 10% fetal bovine serum (FBS) (Eurobio, Les Ulis, France) and 100 IU/mL penicillin + 100 μg/mL streptomycin (Gibco), at 37 °C in a 5% CO2 atmosphere. The medium was renewed once a week. The viability was determined using MTT (Thiazolyl Blue Tetrazolium Bromide) dye assay as described before for leishmanicidal activity assessment, with some variations. Here, 5 × 10^4 cells/well in a final volume of 100 µL were deposited into a 96-well plate, in triplicate. Saponin (2.4 mg/mL) and untreated cells were used as positive control and negative control, respectively. A stock solution was prepared in DMSO and immediately diluted in media to obtain different serial concentrations (100–0.01 µM). After 48 h exposure to the compounds, 10 µL/well of MTT (5 mg/mL MTT in PBS) were added, and the plate was incubated at 37 °C for 2 h in the dark. Cells were pelleted by centrifugation at 4400 rpm for 10 min and the media was removed. Then, 100 µL/well of DMSO were added and the absorbance at 570 nm was recorded; a reference wavelength of 630 nm was used for background subtraction.

Data set [5] in a line: DPPH radical scavenging assay. Conditions: 30 min, 515 nm. The protocol:
The stock solution of the compounds was prepared by dissolving 4 in dimethyl sulfoxide (DMSO) to a concentration of 4 mg/mL. The solution was diluted with methanol until a concentration of 400 µg/mL was obtained and then used immediately.
The experimental procedure was adapted from the literature. Briefly, 100 µL of a 0.2 mM methanol solution of DPPH (2, 2-diphenyl-1-picrylhydrazyl) radical were added to 100 µL of methanolic solutions of 4 prepared as serial two-fold dilutions from the stock solution in 96-well microfilter plates. Standards and edaravone were also prepared in the same concentrations. The mixture was incubated in dark at room temperature for 30 min and the absorbance was read at 515 nm on a Cytation 5 (BioTek) spectrophotometer.
The % DPPH scavenging activity was then calculated by using the following formula:(1) % DPPH scavenging = 100 × [(Asample+DPPH−Asample blank)/(ADPPH−Asolvent)]
The antioxidant activity of the compound was expressed as IC50, which is defined as the concentration that could scavenge 50% of the DPPH free radical. The IC50 values were calculated in GraphPad Prism 7.02 (GraphPad Software, Corp.) The results are given as a mean ± standard deviation (SD) of experiments done in triplicate.
On the technique in general: Loss of DPPH colour is used to gauge radical scavenging.

Data set [6] concerns CHO-K1 cells. The class given is cell-based, hamster. The protocol:
Cells were mixed with 150 μL low-melting-point agarose 1% (LMP, Promega, Madison, WI, USA) and added to microscope slides previously prepared with normal-melting-point agarose 1% (NMP, Invitrogen, Carlsbad, CA, USA). A third LMP agarose layer (150 µL) was added. The slides were immersed in a cooled lysing solution (pH 10) with 10% DMSO, 1% Triton X-100 (Sigma Aldrich, Saint Louis, MO, USA), 2.5 M NaCl (Loba Chemie, Mumbai, India), 100 mM EDTA and 10 mM Tris (Invitrogen, Carlsbad, CA, USA) for 12 h at 4 °C. All steps after lysis were performed under darkness or yellow light to prevent additional DNA damage. The slides were immersed for 20 min in an electrophoresis buffer solution (pH 13) with NaOH 300 mM (Fisher Scientific, Waltham, MA, USA) and EDTA 1 mM (Invitrogen, Carlsbad, CA, USA) to allow for DNA unwinding. Electrophoresis was later performed at 25 V and 300 mA for 20 min. Slides were then sprayed with a neutralization buffer (pH 7.5) 0.4 M Tris (Sigma Aldrich, Saint Louis, MO, USA). Ethidium bromide (60 µL) was added to each slide, and a cover glass was placed on the gel. The DNA migration was analyzed using a ZEISS-Axioskop 2 plus microscope with fluorescence (40×) by scoring 100 cells per slide in duplicate. After that, the tail moment parameter was analyzed by a Comet Assay IV software (Perceptive Instruments Ltd., Bury St Edmunds, Suffolk, UK).

The subject of data set [7] is HeLa. The experiment in a line: MTS cell viability assay on HeLa cells. The class given is cell-based. Conditions: Homo sapiens, 48 h, Dox 1 µM, mean ± SEM, NA = no activity, read-out: Percentage (%) of inhibition, HeLa.
Data set [8] can be described thus: MTS cell viability assay on A-549 cells. Format: cell-based. Conditions: Homo sapiens; 48 h, 15-150 µM, mean ± SEM of triplicates.
The mark [9] stands for this setting: RAW cells, 48 h, MTT, read-out: Cytotoxicity CC50.
The mark [10] stands for this setting: Statistical Analyses S1, unrounded mean of CC50 in RAW cells, unit inferred, read-out: CC50 original values, x.1 (Mean).

Molecules are shown by their SMILES. Read-outs that look alike come from different tables or passages of the source. Some results are limits rather than exact numbers.

What is called inhibition is the change of the read-out against control, counted positive when it falls. For orientation: CC50 means the concentration giving 50% cytotoxicity. A word on the IC50: it is the concentration needed to halve the response being measured.

`CC1=NN(c2ccccc2)C(=O)[C@@]12C(c1ccccc1)[C@@]21C(=O)N(c2ccccc2)N=C1C` (relative stereo) [4b, (5R*,6R*)-4,10-Dimethyl-2,8,11-triphenyl-2,3,8,9-tetraazadispiro[4.0.4.1]undeca-3,9-diene-1,7-dione]: the inhibition at 100 µM worked out at 21.7 ± 2.37% in data set [1], 7.87 ± 2.92% in data set [2] and 5.76 ± 3.08% in data set [3]. The CC50 at 48 h in data set [4] (setting [9]) came out at 3.4 ± 1.5 µM; in data set [4] (setting [10]), 3.44 µM. This compound displayed a concentration for half-maximal inhibition (IC50) in data set [5] of more than 300 µM. Further, the “Genotoxic effect in comet assay versus DMSO control” value in data set [6] is on record as “did not show differences with respect to the control of DMSO”.

Take `CC1=NN(c2ccccc2)C(=O)[C@@]12C(c1ccccc1[N+](=O)[O-])[C@@]21C(=O)N(c2ccccc2)N=C1C` (relative stereo) [4c, (5R*,6R*)-11-(2-Nitrophenyl)-4,10-dimethyl-2,8-diphenyl-2,3,8,9-tetraazadispiro[4.0.4.1]undeca-3,9-diene-1,7-dione]: the inhibition at 100 µM in data set [1] was 37.3 ± 1.22%; in data set [2], 16.7 ± 5.36%; in data set [7], 24.8 ± 1.74%; in data set [3], 2.62 ± 2.2%. Further, the values for the CC50 at 48 h in data set [4] (setting [9]) and in data set [4] (setting [10]) were 2.3 ± 0.2 µM and 2.26 µM, respectively. Moreover, the IC50 in data set [5] is more than 300 µM.

For the compound `COc1ccc(C2[C@@]3(C(=O)N(c4ccccc4)N=C3C)[C@]23C(=O)N(c2ccccc2)N=C3C)cc1` (relative stereo) [4e, (5R*,6R*)-11-(4-Methoxyphenyl)-4,10-dimethyl-2,8-diphenyl-2,3,8,9-tetraazadispiro[4.0.4.1]undeca-3,9-diene-1,7-dione], the inhibition at 100 µM was 36.8 ± 1.55% in data set [1], 4.47 ± 3.48% in data set [2] and 47.8 ± 2.45% in data set [7]. For the same compound, the CC50 at 48 h in data set [4] (setting [9]) is 7.3 ± 2 µM; in data set [4] (setting [10]) it was 7.28 µM. In addition, the IC50 in data set [5] is more than 300 µM.

Turning to `COc1ccccc1C1[C@@]2(C(=O)N(c3ccccc3)N=C2C)[C@]12C(=O)N(c1ccccc1)N=C2C` (relative stereo) [4f, (5R*,6R*)-11-(2-Methoxyphenyl)-4,10-dimethyl-2,8-diphenyl-2,3,8,9-tetraazadispiro[4.0.4.1]undeca-3,9-diene-1,7-dione], the inhibition at 100 µM was found to be 28.7 ± 0.29% in data set [1] and 2.79 ± 1.49% in data set [3]. Besides, the CC50 at 48 h in data set [4] (setting [9]) worked out at 12.8 ± 1.2 µM; in data set [4] (setting [10]), 12.8 µM. In data set [5], the IC50 is more than 300 µM.

On to `CC1=NN(c2ccccc2)C(=O)[C@@]12C(c1ccc(C(F)(F)F)cc1)[C@@]21C(=O)N(c2ccccc2)N=C1C` (relative stereo) [4r, (5R*,6R*)-11-(4-Trifluoromethylphenyl)-4,10-dimethyl-2,8-diphenyl-2,3,8,9-tetraazadispiro[4.0.4.1]undeca-3,9-diene-1,7-dione], for which the inhibition at 100 µM in data set [1] was 64.71 ± 0.52%; in data set [2] it was 45.8 ± 2.11%; in data set [7], 50.2 ± 0.52%; in data set [3], 4.74 ± 3.04%. The half-maximal inhibitory concentration (IC50) in data set [1] was 60.7 ± 9.95 µM; in data set [8], 78.7 ± 7.9 µM; in data set [5] it was more than 300 µM. Moreover, the CC50 at 48 h in data set [4] (setting [9]) came out at 6.5 ± 0.9 µM; in data set [4] (setting [10]) it was 6.48 µM.

With `CC1=NN(c2ccccc2)C(=O)[C@@]12C(c1ccc(OC(F)(F)F)cc1)[C@@]21C(=O)N(c2ccccc2)N=C1C` (relative stereo) [4s, (5R*,6R*)-11-(4-Trifluoromethoxyphenyl)-4,10-dimethyl-2,8-diphenyl-2,3,8,9-tetraazadispiro[4.0.4.1]undeca-3,9-diene-1,7-dione], the inhibition at 100 µM in data set [1] amounted to 70.2%; in data set [2], 9.91 ± 3.37%; in data set [7], 43.6 ± 1.75%. Moreover, the figures for the IC50 in data set [1], in data set [8] and in data set [5] were 63.8 ± 6.48 µM, 78.5 ± 7.08 µM and more than 300 µM, respectively. The CC50 at 48 h in data set [4] (setting [9]) was 8.6 ± 3.2 µM; in data set [4] (setting [10]), 8.63 µM.

Consider `CC1=NN(c2ccccc2)C(=O)[C@@]12C(c1cccc(F)c1)[C@@]21C(=O)N(c2ccccc2)N=C1C` (relative stereo) [4t, (5R*,6R*)-11-(3-Fluorophenyl)-4,10-dimethyl-2,8-diphenyl-2,3,8,9-tetraazadispiro[4.0.4.1]undeca-3,9-diene-1,7-dione], for which the inhibition at 100 µM turned out to be 47.6 ± 0.95% in data set [1], 31.4 ± 3.65% in data set [2], 5.06 ± 2.43% in data set [7] and 5.08 ± 2.84% in data set [3]. The CC50 at 48 h in data set [4] (setting [9]) amounted to 2.7 ± 0.7 µM; in data set [4] (setting [10]), 2.75 µM. Further, the IC50 in data set [5] was more than 300 µM. For the same compound, the “Genotoxic effect in comet assay versus DMSO control” value in data set [6] is recorded as “did not show differences with respect to the control of DMSO”.

With `CSc1ccc(C2[C@]3(C(=O)N(c4ccccc4)N=C3C)[C@@]23C(=O)N(c2ccccc2)N=C3C)cc1` (relative stereo) [4u, (5R*,6R*)-11-(4-Thiomethylphenyl)-4,10-dimethyl-2,8-diphenyl-2,3,8,9-tetraazadispiro[4.0.4.1]undeca-3,9-diene-1,7-dione], the inhibition at 100 µM in data set [1] amounted to 41 ± 1.49%; in data set [2], 19.5 ± 2.96%; in data set [7], 34.7 ± 2.29%; in data set [3], 5.76 ± 3.65%. The CC50 at 48 h in data set [4] (setting [9]) came out at 9.3 ± 3.4 µM; in data set [4] (setting [10]) it was 9.3 µM. This compound returned an IC50 in data set [5] of more than 300 µM. Further, in data set [6], the “Genotoxic effect in comet assay versus DMSO control” value is given as “did not show differences with respect to the control of DMSO”.
